Assay [1] deals with MuOPR 211–226 peptide (mu opioid receptor) (Homo sapiens, UniProt P35372). Put plainly: biochemical.
Assay [2] addresses D1DR 175–188 peptide (dopamine receptor D1) (Homo sapiens, UniProt P21728). As to the kind of experiment: biochemical.
Assay [3] concerns the target B2AR 175–188 peptide (β-2-adrenergic receptor) (Homo sapiens, UniProt P07550). As to the kind of experiment: biochemical.
Protocol: (§1) Each of these receptor peptides were made into individual stock solutions with a concentration of 1 mg/mL in pH 7.40 phosphate buffered saline solution (Fischer Scientific, Hampton, NH, USA). For each individual test, the stock solution was diluted to 0.1 or 0.2 mg/mL solution. […] The adrenergic or compounds were made up at 1.0 mM solutions and then serially diluted by thirds eleven times using phosphate buffer.
(§2) After the solutions were made, a 96-well quartz crystal plate was prepared to be run through the spectrophotometer at room temperature (approximately 24 °C). […] The absorbance of each receptor peptide without the presence of the adrenergic compound was measured as well. The absorbance of each well was measured at every 10-nm increment from 190–260 nm. The maximum absorbance that can be measured was set to be 4. Each well had 200 μL of solution, so if the absorbance of one component was being measured, it was diluted by half with phosphate buffer.
(§3) If the measured absorbance is different than the additive absorbance of each compound, then that indicates some sort of molecular interaction. The binding can be quantified by graphing the difference in absorbance against the concentration of the compound varied to provide a binding curve. The absorbance for the phosphate buffer is subtracted for each well before any calculations are done. The data are analyzed by finding the additive absorbance, and plotting the difference between this absorbance and the actual absorbance against the concentration of the adrenergic compound. […] The binding constants were estimated from the half-saturation point at 200 nm since the absorbance differences tended to be maximized at this wavelength.
The target of assay [4] is B2AR 93–100 peptide (β-2-adrenergic receptor) (Homo sapiens, UniProt P07550). As to the kind of experiment: biochemical.
Protocol: as §1, §2, §3
Assay [5] addresses B2AR 103–113 peptide (β-2-adrenergic receptor) (Homo sapiens, UniProt P07550). As to the kind of experiment: biochemical.
Protocol: as §1, §2
(§4) If the measured absorbance is different than the additive absorbance of each compound, then that indicates some sort of molecular interaction. The binding can be quantified by graphing the difference in absorbance against the concentration of the compound varied to provide a binding curve. The absorbance for the phosphate buffer is subtracted for each well before any calculations are done. […]
For assay [6], the target named is MuOPR 121–131 peptide (mu opioid receptor) (Homo sapiens, UniProt P35372). Put plainly: biochemical.
Assay [7] concerns the target MuOPR 38–51 peptide (mu opioid receptor) (Homo sapiens, UniProt P35372). As to the kind of experiment: biochemical.
The target of assay [8] is HIST 77–87 peptide (histamine 1 receptor) (Homo sapiens, UniProt P35367). As to the kind of experiment: biochemical.
The target of assay [9] is B2AR 97–106 peptide (β-2-adrenergic receptor) (Homo sapiens, UniProt P07550). Put plainly: biochemical.
Protocol: as §1, §2, §3
Assay [10] addresses HIST 96–107 peptide (histamine 1 receptor) (Homo sapiens, UniProt P35367). As to the kind of experiment: biochemical.
Assay [11] addresses MuOPR 132–143 peptide (mu opioid receptor) (Homo sapiens, UniProt P35372). Put plainly: biochemical.
Assay [12] has as its target HIST 89–98 peptide (histamine 1 receptor) (Homo sapiens, UniProt P35367). As to the kind of experiment: biochemical.
Assay [13] addresses HIST 166–172 peptide (histamine 1 receptor) (Homo sapiens, UniProt P35367). As to the kind of experiment: biochemical.
Assay [14] concerns the target HIST 177–183 peptide (histamine 1 receptor) (Homo sapiens, UniProt P35367). As to the kind of experiment: biochemical.
Assay [15] deals with HIST 105–115 peptide (histamine 1 receptor) (Homo sapiens, UniProt P35367). As to the kind of experiment: biochemical.
The target in assay [16] is MuOPR 111–122 peptide (mu opioid receptor) (Homo sapiens, UniProt P35372). As to the kind of experiment: biochemical.
In assay [17] the target is D1DR 89–100 peptide (dopamine receptor D1) (Homo sapiens, UniProt P21728). As to the kind of experiment: biochemical.
In assay [18] the target is INSR 105–113 peptide (insulin receptor) (Homo sapiens, UniProt P06213). Put plainly: biochemical.
Protocol: as §1, §2, §3
Assay [19] addresses INSR 157–166 peptide (insulin receptor) (Homo sapiens, UniProt P06213). As to the kind of experiment: biochemical.
Protocol: as §1, §2, §4
Assay [20] deals with intact, purified human mu opioid receptor (muOPR) (Homo sapiens, UniProt P35372). Put plainly: biochemical. As to conditions: for binding to intact muOPR (in words): UV spectra, serial additions in Tris buffer. The protocol: MuOPR expression was achieved using the muOPR transformed C43 (DE3) cell strain of E. coli in Terrific Broth medium as reported earlier with 0.4 mM isopropyl β-D-1-thiogalactopyranoside induction at 18 °C for 24 h. Bacterial cell cultures were harvested by centrifugation at 4000× g for 20 min. Periplasmic fraction from the harvested cells was removed by osmatic shock. Cells were resuspended in 7 mL of lysis buffer (20 mM Tris-HCl pH 8.0, 150 mM NaCl, 10% glycerol, 2 mM MgCl2, 10 μM E-64, 1 μM pepstatin-A, 10 μM leupeptin, 1 mM pefabloc SC, 2 mM β-Mercaptoethanol, 1 mg/mL lysozyme, 30 U/mL DNase) per gram of cell pellet and incubated on ice for 30 min with continuous stirring. […] The solubilized membrane sample was centrifuged at 100,000× g for 1 h at 4 °C and the supernatant was collected. Imidazole was added to the supernatant to a final concentration of 5 mM before starting purification using Ni-NTA resin in batch mode as reported. Eluted fractions with muOPR were pooled, concentrated and subjected to size exclusion chromatography (SEC) using HiLoad 16/600 Superdex 200 pg column (GE Healthcare Sciences, Berlin, Germany) equilibrated with 20 mM Tris pH 8, 150 mM NaCl, 0.1% Fos12, 10% Glycerol and 1 mM TCEP. SEC elution fractions were analyzed by SDS-PAGE and western blotting with Monoclonal Anti-polyHistidine-Peroxidase antibody (Sigma-Aldrich) for protein presence and purity before use.
The spectrum of the wells was then recorded from 190 to 260 nm using a Spectramax plus scanning spectrophotometer (Molecular Devices, San Jose, CA, USA) using SOFTMax PRO software (Molecular Devices, San Jose, CA, USA). The procedure described above was repeated an additional eleven times using compound dilutions of increasing concentration each time.
Data were analyzed in Excel. The raw spectra were processed by averaging the three runs of each condition and then subtracting the absorbance of the buffer alone at each volume. The triplicate data for each experimental condition were averaged. The compound + buffer data were subtracted from the muOPR + compound data at each volume to leave the spectrum of the muOPR under that experimental condition. […] Because the final calculations involve several subtractions, error bars […].

Another assay deals with muOPR peptides (Homo sapiens, UniProt P35372). The format is binding.
The target of assay [21] is Met-enkephalin (Homo sapiens). As to the kind of experiment: UV spectroscopy. As to conditions: modification not given.

Where a name gives a salt, the structure may show the parent alone. Read-outs that look alike come from different tables or passages of the source. Where only a bound is given, the exact number is not on record here.

Sequence of muOPR peptides (P35372 with tags, fused parts or gaps): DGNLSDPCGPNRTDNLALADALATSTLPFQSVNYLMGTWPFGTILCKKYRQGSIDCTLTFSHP
Sequence of intact, purified human mu opioid receptor (muOPR) (P35372 whole entry): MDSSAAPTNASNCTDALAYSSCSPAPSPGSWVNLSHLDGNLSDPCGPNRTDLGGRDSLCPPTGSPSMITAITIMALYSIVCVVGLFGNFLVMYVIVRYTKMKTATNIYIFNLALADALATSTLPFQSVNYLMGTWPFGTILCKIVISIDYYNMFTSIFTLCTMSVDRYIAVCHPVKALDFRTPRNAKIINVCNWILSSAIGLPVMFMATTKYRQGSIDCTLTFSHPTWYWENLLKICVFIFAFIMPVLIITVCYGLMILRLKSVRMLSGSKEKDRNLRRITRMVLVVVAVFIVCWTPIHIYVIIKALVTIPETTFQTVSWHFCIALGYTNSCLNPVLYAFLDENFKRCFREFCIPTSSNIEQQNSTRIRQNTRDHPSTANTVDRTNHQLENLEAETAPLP
Protocol for muOPR peptides: as §1, §2, §3

On to `OC[C@H]1OC(O)[C@H](O)[C@@H](O)[C@@H]1O` (some centres unmarked) [GLUC, glucose], for which the Kd in assay [1], in assay [2], in assay [3], in assay [4], in assay [5] and in assay [6] was above 1000 µM throughout. Also, the Kd in [7], in [8], in assay [9], in assay [10], in assay [11] and in assay [12] was above 1000 µM throughout. Moreover, the Kd in assay [13], in assay [14], in assay [15], in assay [16] and in assay [17] was above 1000 µM each time.
Take `O=C(O)CN(CCN(CC(=O)O)CC(=O)O)CC(=O)O` [EDTA, ethylenediaminetetraacetic acid]: the Kd in [18] and in assay [19] was above 1000 µM in each case.
On to `O=C1O[C@H]([C@@H](O)CO)C(O)=C1O` [ASC, ascorbic acid], for which the “binding to intact muOPR (in words)” value in [20] was “No significant binding”. Besides, the “binding to the muOPR peptides (in words)” value on muOPR peptides (UV spectroscopy) was “did not bind”.
In the case of `CN1CC[C@]23c4c5ccc(O)c4O[C@H]2[C@@H](O)C=C[C@H]3[C@H]1C5` [Morph, morphine sulfate], the Kd – broadly, the concentration at which binding is half-saturated – turned out to be 10 µM in assay [2] and 20 µM in [17].
On to `CC(=O)OCC[N+](C)(C)C` [ACh, acetylcholine], for which the Kd was above 1000 µM in assay [1]; above 1000 µM in assay [6]; above 1000 µM in [7]; above 1000 µM in [20]; above 1000 µM in assay [20] (Kd @ 210 nm (μM), 210 nm); above 1000 µM in assay [11]. In [16], this molecule gave a Kd above 1000 µM. Further, the “binding to intact muOPR (in words)” value in assay [20] is given as “No significant binding”. The “binding to the muOPR peptides (in words)” value at muOPR peptides (UV spectroscopy) is given as “no measurable binding”.
As to `NCCc1c[nH]cn1` [Hist, histamine], the “binding to the muOPR peptides (in words)” value on muOPR peptides is “no measurable binding”.
As to `C=CCN1CC[C@]23c4c5ccc(O)c4O[C@H]2C(=O)CC[C@@]3(O)[C@H]1C5` [Nalox, naloxone], the Kd in assay [18] amounted to 20 µM; in assay [2] it was 20 µM; in assay [3] it was 40 µM; in assay [4], 5 µM; in assay [5] it was 3 µM; in assay [9], 6 µM. For the same molecule, the Kd in assay [17] turned out to be 5 µM; in assay [19], 200 µM.
On to `Cc1cc2nc3c(=O)[nH]c(=O)nc-3n(C[C@H](O)[C@H](O)[C@H](O)CO)c2cc1C` [RIBO, riboflavin], for which the dissociation constant (Kd) in assay [1] is above 1000 µM; in assay [18], 500 µM; in [2], 300 µM; in [3], 500 µM; in assay [4] it was 400 µM; in assay [6], above 1000 µM. Further, the Kd in assay [7] is 50 µM; in assay [8], above 1000 µM; in assay [9], 600 µM; in [10], 500 µM; in [11], 100 µM; in assay [12] it was 400 µM. Further, the Kd in [15] was 450 µM; in assay [16], above 1000 µM; in assay [17], 600 µM.
As to `NCCc1ccc(O)c(O)c1` [DOP, dopamine], at muOPR peptides, the “binding to the muOPR peptides (in words)” value is listed as “only displayed the low affinity binding”.
Turning to `NCCc1c[nH]c2ccc(O)cc12` [5HT, 5-hydroxytryptamine], the Kd in [1] was determined as 90 µM; in assay [6], 350 µM; in [7], 100 µM; in [11], 100 µM; in assay [16], 100 µM.
In [21], NLALADALATST registered a Kd of 80 µM.
Still for that read-out and setting: the value for TLPFQSVNYL was 90 µM.
Still for that read-out and setting: the value for KYRQGSIDCTLTFSHP was 1 µM.
